From the supplement of paper PMC10307832

Key:
Assay in all cases: relative viability (nuclei count vs DMSO), 5 days (fraction); higher = more cells survive
IU1-47 + Phenformin = compound: CC1=CC(=C(N1C2=CC=C(C=C2)Cl)C)C(=O)CN3CCCCC3 [IU1-47] + N=C(N)NC(=N)NCCc1ccccc1 [Phenformin] (partner 250 µM)
How it was run: (§1)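 Nuclei were stained with Hoechst during a one-step fixation (final 0.05% Triton X-100, 1% formaldehyde, 1 ug/ml Hoechst) carried out 5 days after dosing, then counted on 4× images. The cells, lung cancer lines in 1536-well plates, had been dosed by pin tool the day after seeding with one drug alone or a fixed anchor-drug dose plus five library-drug doses (not always all listed) in √10 steps. Relative viability is the nuclei count in treated wells divided by that in vehicle wells, and each value is the median of duplicate plates.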

FG-4592 + Palbociclib = compound: Cc1nc(C(=O)NCC(=O)O)c(O)c2ccc(Oc3ccccc3)cc12 [FG-4592] + CC(=O)c1c(C)c2cnc(Nc3ccc(N4CCNCC4)cn3)nc2n(C2CCCC2)c1=O [Palbociclib] (partner 0.5 µM)
How it was run: as §1

FG-4592 + OSI-027 = compound: Cc1nc(C(=O)NCC(=O)O)c(O)c2ccc(Oc3ccccc3)cc12 [FG-4592] + COc1cccc2cc(-c3nc([C@H]4CC[C@H](C(=O)O)CC4)n4ncnc(N)c34)[nH]c12 [OSI-027] (partner 0.5 µM)
How it was run: as §1

FG-4592 + Luminespib = compound: Cc1nc(C(=O)NCC(=O)O)c(O)c2ccc(Oc3ccccc3)cc12 [FG-4592] + CCNC(=O)c1noc(-c2cc(C(C)C)c(O)cc2O)c1-c1ccc(CN2CCOCC2)cc1 [Luminespib] (partner 0.01 µM)
How it was run: as §1

Cell Line: UMC-11
- relative viability (IU1-47 + Phenformin; first compound 0.08 µM): 0.315
- relative viability (IU1-47 + Phenformin; first compound 0.253 µM): 0.326
- relative viability (IU1-47 + Phenformin; first compound 0.8 µM): 0.322
- relative viability (IU1-47 + Phenformin; first compound 2.53 µM): 0.349
- relative viability (IU1-47 + Phenformin; first compound 8 µM): 0.367
- relative viability (FG-4592 + Palbociclib; first compound 0.08 µM): 0.306
- relative viability (FG-4592 + Palbociclib; first compound 0.253 µM): 0.309
- relative viability (FG-4592 + Palbociclib; first compound 0.8 µM): 0.32
- relative viability (FG-4592 + Palbociclib; first compound 2.53 µM): 0.331
- relative viability (FG-4592 + Palbociclib; first compound 8 µM): 0.285
- relative viability (FG-4592 + OSI-027; first compound 0.08 µM): 0.466
- relative viability (FG-4592 + OSI-027; first compound 0.253 µM): 0.529
- relative viability (FG-4592 + OSI-027; first compound 0.8 µM): 0.498
- relative viability (FG-4592 + OSI-027; first compound 2.53 µM): 0.461
- relative viability (FG-4592 + OSI-027; first compound 8 µM): 0.441
- relative viability (FG-4592 + Luminespib; first compound 0.08 µM): 0.957
- relative viability (FG-4592 + Luminespib; first compound 0.253 µM): 0.944
- relative viability (FG-4592 + Luminespib; first compound 0.8 µM): 1.01
- relative viability (FG-4592 + Luminespib; first compound 2.53 µM): 0.995
- relative viability (FG-4592 + Luminespib; first compound 8 µM): 0.778
